Laboratory results: ChEMBL document CHEMBL5661980, “Discovery of OSI-906: a selective and orally efficacious dual inhibitor of the IGF-1 receptor and insulin receptor” (Future Med Chem, 2009)

Tests used:
[1] = AUC last in CD-1 mouse measured at 75 mg/kg, po for 1 to 24 hrs by HPLC-MS/MS analysis; format: ADME, organism-based; conditions: in vivo, time 1-24 hrs
[2] = AUC last in Sprague-Dawley rat measured at 100 mg/kg, po for 1 to 24 hrs by HPLC-MS/MS analysis; format: ADME, organism-based; conditions: in vivo, time 1-24 hrs
[3] = Toxicity in athymic nu/nu CD-1 mouse allografted with mouse 3T3 cells expressing human IGF-1R assessed as hyperglycemia at 75 mg/kg, po for 12 days; format: organism-based, NIH3T3; conditions: in vivo, 288 h, time 12 day
[4] = Cmax in CD-1 mouse measured at 250 mg/kg, po for 1 to 24 hrs by HPLC-MS/MS analysis; format: ADME, organism-based; conditions: in vivo, time 1-24 hrs
[5] = AUC (0 to infinity) in Beagle dog measured at 2.5 mg/kg, iv for 1 to 24 hrs by HPLC-MS/MS analysis; format: ADME, organism-based, Canis lupus familiaris; conditions: in vivo, time 1-24 hrs
[6] = molecular target: Platelet-derived growth factor receptor (Homo sapiens, UniProt P09619+P16234); assay: Inhibition of PDGFR-alpha/beta (unknown origin) in presence of ATP Km treated at 2 hrs followed by […] ligand addition for 15 mins by ELISA analysis
[7] = Oral bioavailability in CD-1 mouse measured at 75 mg/kg for 1 to 24 hrs by HPLC-MS/MS analysis; format: ADME, organism-based; conditions: in vivo, time 1-24 hrs
[8] = Toxicity in athymic nu/nu CD-1 mouse allografted with mouse 3T3 cells expressing human IGF-1R assessed as loss in body weight at 25 mg/kg, po for 12 days relative to control; format: organism-based, NIH3T3; conditions: in vivo, 288 h, time 12 day
NIH3T3 [9] = assay: Antitumor activity against mouse 3T3 cells allografted in athymic nu/nu CD-1 mouse assessed as tumor regression at 75 mg/kg, po for 12 days relative to control; format: functional; conditions: time 12 day
[10] = Oral bioavailability in Sprague-Dawley rat measured at 12.5 mg/kg for 1 to 24 hrs by HPLC-MS/MS analysis; format: ADME, organism-based; conditions: in vivo, time 1-24 hrs
[11] = Toxicity in athymic nu/nu CD-1 mouse allografted with mouse 3T3 cells expressing human IGF-1R assessed as loss in body weight at 75 mg/kg, po for 12 days relative to control; format: organism-based, NIH3T3; conditions: in vivo, 288 h, time 12 day
NIH3T3 [12] = assay: Antitumor activity against mouse 3T3 cells allografted in athymic nu/nu CD-1 mouse assessed as tumor regression at 25 mg/kg, po for 12 days relative to control; format: functional; conditions: time 12 day
[13] = Plasma concentration in CD-1 mouse measured at 25 mg/kg, po for 24 hrs by HPLC-MS/MS analysis; format: ADME, organism-based
Cytochrome P450 1A2 = molecular target: T1, Cytochrome P450 1A2 (Homo sapiens, UniProt P05177); assay: Inhibition of CYP1A2 (unknown origin) in presence of NADPH generating system incubated for 20 mins by luminescent method; format: ADME
T1 sequence (P05177 whole entry): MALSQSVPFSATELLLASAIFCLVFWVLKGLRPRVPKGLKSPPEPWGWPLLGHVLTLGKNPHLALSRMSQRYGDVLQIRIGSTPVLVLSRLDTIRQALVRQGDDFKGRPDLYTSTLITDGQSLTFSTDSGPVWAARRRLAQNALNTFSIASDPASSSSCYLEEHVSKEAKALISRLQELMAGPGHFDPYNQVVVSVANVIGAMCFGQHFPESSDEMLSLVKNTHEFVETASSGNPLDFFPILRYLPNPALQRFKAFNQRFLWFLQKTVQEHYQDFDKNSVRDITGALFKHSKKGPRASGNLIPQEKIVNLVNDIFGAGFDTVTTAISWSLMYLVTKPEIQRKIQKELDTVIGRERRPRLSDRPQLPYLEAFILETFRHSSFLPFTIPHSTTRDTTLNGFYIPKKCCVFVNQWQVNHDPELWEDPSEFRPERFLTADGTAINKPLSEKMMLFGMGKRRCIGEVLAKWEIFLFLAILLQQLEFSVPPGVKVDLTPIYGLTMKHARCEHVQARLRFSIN

[14] = Cmax in CD-1 mouse measured at 5 mg/kg, po for 1 to 24 hrs by HPLC-MS/MS analysis; format: ADME, organism-based; conditions: in vivo, time 1-24 hrs
[15] = Cmax in Sprague-Dawley rat measured at 12.5 mg/kg, po for 1 to 24 hrs by HPLC-MS/MS analysis; format: ADME, organism-based; conditions: in vivo, time 1-24 hrs
[16] = AUC last in CD-1 mouse measured at 25 mg/kg, po for 1 to 24 hrs by HPLC-MS/MS analysis; format: ADME, organism-based; conditions: in vivo, time 1-24 hrs
[17] = Volume of distribution at steady state in CD-1 mouse measured at 5 mg/kg, iv for 1 to 24 hrs by HPLC-MS/MS analysis; format: ADME, organism-based; conditions: in vivo, time 1-24 hrs, read-out: Vdss
[18] = Clearance in Sprague-Dawley rat measured at 5 mg/kg, iv for 1 to 24 hrs by HPLC-MS/MS analysis; format: ADME, organism-based; conditions: in vivo, time 1-24 hrs
[19] = Clearance in CD-1 mouse measured at 5 mg/kg, iv for 1 to 24 hrs by HPLC-MS/MS analysis; format: ADME, organism-based; conditions: in vivo, time 1-24 hrs
[20] = Oral bioavailability in CD-1 mouse measured at 250 mg/kg for 1 to 24 hrs by HPLC-MS/MS analysis; format: ADME, organism-based; conditions: in vivo, time 1-24 hrs
[21] = Oral bioavailability in CD-1 mouse measured at 5 mg/kg for 1 to 24 hrs by HPLC-MS/MS analysis; format: ADME, organism-based; conditions: in vivo, time 1-24 hrs
[22] = AUC (0 to infinity) in CD-1 mouse measured at 5 mg/kg, iv for 1 to 24 hrs by HPLC-MS/MS analysis; format: ADME, organism-based; conditions: in vivo, time 1-24 hrs
[23] = Oral bioavailability in Sprague-Dawley rat measured at 100 mg/kg for 1 to 24 hrs by HPLC-MS/MS analysis; format: ADME, organism-based; conditions: in vivo, time 1-24 hrs
[24] = Oral bioavailability in Beagle dog measured at 5 mg/kg for 1 to 24 hrs by HPLC-MS/MS analysis; format: ADME, organism-based, Canis lupus familiaris; conditions: in vivo, time 1-24 hrs
[25] = Volume of distribution at steady state in Beagle dog measured at 2.5 mg/kg, iv for 1 to 24 hrs by HPLC-MS/MS analysis; format: ADME, organism-based, Canis lupus familiaris; conditions: in vivo, time 1-24 hrs, read-out: Vdss
[26] = Cmax in Beagle dog measured at 5 mg/kg, po for 1 to 24 hrs by HPLC-MS/MS analysis; format: ADME, organism-based, Canis lupus familiaris; conditions: in vivo, time 1-24 hrs
[27] = AUC (0 to infinity) in Sprague-Dawley rat measured at 5 mg/kg, iv for 1 to 24 hrs by HPLC-MS/MS analysis; format: ADME, organism-based; conditions: in vivo, time 1-24 hrs
Cytochrome P450 2D6 = Cytochrome P450 2D6 (Homo sapiens, UniProt P10635); assay: Inhibition of CYP2D6 (unknown origin) in presence of NADPH generating system incubated for 20 mins by luminescent method; format: ADME
NIH3T3 [28] = assay: Antitumor activity against mouse 3T3 cells allografted in athymic nu/nu CD-1 mouse assessed as tumor growth inhibition at 25 mg/kg, po for 12 days relative to control; format: functional; conditions: NIH3T3, 288 h, time 12 day, read-out: TGI
[29] = Elimination half life in Beagle dog measured at 2.5 mg/kg, iv for 1 to 24 hrs by HPLC-MS/MS analysis; format: ADME, organism-based, Canis lupus familiaris; conditions: in vivo, time 1-24 hrs, read-out: beta t1/2 (converted)
[30] = Plasma concentration in CD-1 mouse measured at 75 mg/kg, po for 24 hrs by HPLC-MS/MS analysis; format: ADME, organism-based
[31] = AUC last in Sprague-Dawley rat measured at 12.5 mg/kg, po for 1 to 24 hrs by HPLC-MS/MS analysis; format: ADME, organism-based; conditions: in vivo, time 1-24 hrs

Cytochrome P450 2D6, sequence (P10635 whole entry): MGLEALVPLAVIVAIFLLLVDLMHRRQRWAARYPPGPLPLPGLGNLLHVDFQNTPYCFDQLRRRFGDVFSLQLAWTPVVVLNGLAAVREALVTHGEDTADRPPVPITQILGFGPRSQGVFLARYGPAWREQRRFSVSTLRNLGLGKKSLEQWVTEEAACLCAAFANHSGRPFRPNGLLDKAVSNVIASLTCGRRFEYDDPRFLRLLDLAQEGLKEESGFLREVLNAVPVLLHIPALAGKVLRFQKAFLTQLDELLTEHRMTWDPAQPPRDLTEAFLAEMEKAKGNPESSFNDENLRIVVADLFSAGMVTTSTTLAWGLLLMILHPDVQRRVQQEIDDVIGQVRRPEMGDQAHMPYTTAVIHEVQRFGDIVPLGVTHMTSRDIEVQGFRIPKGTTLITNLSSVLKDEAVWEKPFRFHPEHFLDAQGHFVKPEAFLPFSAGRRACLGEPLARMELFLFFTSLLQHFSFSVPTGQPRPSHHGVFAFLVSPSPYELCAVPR

AUC(0-t) [1]: 87500 ng·h/mL
AUC(0-t) [2]: 424000 ng·h/mL
Cmax [4]: 42 µM
AUC(0-inf) [5]: 1070 ng·h/mL
IC50 [6]: > 10 µM
bioavailability [7]: 84%
bioavailability [10]: 74%
concentration at 24 h [13]: 0.02 µM
IC50 (Cytochrome P450 1A2): > 10 µM
Cmax [14]: 3.42 µM
Cmax [15]: 10 µM
AUC(0-t) [16]: 26700 ng·h/mL
Vd [17]: 2.05 L/kg
clearance [18]: 4 mL/min/kg
clearance [19]: 12 mL/min/kg
bioavailability [20]: > 100%
bioavailability [21]: 98%
AUC(0-inf) [22]: 6950 ng·h/mL
bioavailability [23]: 92%
bioavailability [24]: 64%
Vd [25]: 4.3 L/kg
Cmax [26]: 1.2 µM
AUC(0-inf) [27]: 23100 ng·h/mL
IC50 (Cytochrome P450 2D6): > 10 µM
half-life [29]: 1.18 h
concentration at 24 h [30]: 2.92 µM
AUC(0-t) [31]: 42800 ng·h/mL
Structure (SMILES): C[C@]1(O)C[C@@H](c2nc(-c3ccc4ccc(-c5ccccc5)nc4c3)c3c(N)nccn32)C1 [LINSITINIB]
Activity [3]: Toxic
Activity [8]: < 10%
Activity (NIH3T3 [9]): 55%
Activity [11]: 16%
Activity (NIH3T3 [12]): 0%
inhibition in vivo at 25 mg/kg (NIH3T3 [28]): 60%
